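96-well plates; 48 h exposure; 5 concentrations. Endpoints by linear interpolation between flanking doses. Not reached: highest tested concentration assigned. GI50 marks 50% less growth.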 Activity calls are given as the source filed them. No stated cut-off is given here; in the data, active = GI50 up to about 1.1 µM and inactive = higher. Non-standard residues stand in square brackets, D forms with d. Square brackets hold non-standard residues; d marks the D form. Residues, ends and D or L forms follow the SMILES beside them. Peptide text beside a SMILES is read from it. * marks the point of attachment. ξ: configuration not given here. *: point of attachment. ξF = NC(Cc1ccccc1)C(=O)O; Ac5c = NC1(C(=O)O)CCCC1; Cbz = O=C(OCc1ccccc1)*; Boc = CC(C)(C)OC(=O)*; Aib = CC(C)(N)C(=O)O; tBu = CC(C)(C)*
What was measured:
Test in all cases: NCI tumour cell line growth inhibition, 48 h
IGROV-1 = system: IGROV-1
SK-MEL-28 = system: SK-MEL-28
LOX IMVI = system: LOX IMVI
ACHN = system: ACHN
SF-539 = system: SF-539
MDA-MB-435 = system: MDA-MB-435
HL-60 = system: HL-60
PC-3 = system: PC-3
T47D = system: T47D
M14 = system: M14
NCI-H226 = system: NCI-H226
SN12C = system: SN12C
OVCAR-4 = system: OVCAR-4
SK-OV-3 = system: SK-OV-3
COLO 205 = system: COLO 205
OVCAR-5 = system: OVCAR-5
SK-MEL-2 = system: SK-MEL-2
UACC-62 = system: UACC-62
A498 = system: A498
SR = system: SR

## CCOC(=O)c1c2c(n(-c3ccc(OC)cc3)c1C)C(=O)C(=O)c1ccccc1-2
IGROV-1
  GI50: 2.52 µM (inactive)
SK-MEL-28
  GI50: 2.12 µM (inactive)
LOX IMVI
  GI50: 0.789 µM (active)
ACHN
  GI50: 1.14 µM (inactive)
SF-539
  GI50: 0.711 µM (active)
MDA-MB-435
  GI50: 0.19 µM (active)
HL-60
  GI50: 0.0261 µM (active)
PC-3
  GI50: 2.18 µM (inactive)
T47D
  GI50: 1.01 µM (active)
M14
  GI50: 1.59 µM (inactive)
NCI-H226
  GI50: 1.75 µM (inactive)
SN12C
  GI50: 1.58 µM (inactive)
OVCAR-4
  GI50: 0.624 µM (active)
SK-OV-3
  GI50: 2.38 µM (inactive)
COLO 205
  GI50: 2.2 µM (inactive)
OVCAR-5
  GI50: 1.88 µM (inactive)
SK-MEL-2
  GI50: 3.27 µM (inactive)
UACC-62
  GI50: 1.6 µM (inactive)

## CN(C)CCCn1c(Cc2ccccc2)nc2cc(C(F)(F)F)ccc21
IGROV-1
  GI50: 30.2 µM (inactive)
SK-MEL-28
  GI50: 19.1 µM (inactive)
LOX IMVI
  GI50: 18 µM (inactive)
A498
  GI50: 15 µM (inactive)
ACHN
  GI50: 62.8 µM (inactive)
MDA-MB-435
  GI50: 15.9 µM (inactive)
PC-3
  GI50: 29 µM (inactive)
T47D
  GI50: 19.9 µM (inactive)
M14
  GI50: 15.5 µM (inactive)
NCI-H226
  GI50: 40.3 µM (inactive)
SN12C
  GI50: 41.6 µM (inactive)
OVCAR-4
  GI50: 18.6 µM (inactive)
SK-OV-3
  GI50: 23.5 µM (inactive)
COLO 205
  GI50: 16.1 µM (inactive)
OVCAR-5
  GI50: 78.7 µM (inactive)
SK-MEL-2
  GI50: 17.5 µM (inactive)
UACC-62
  GI50: 18.8 µM (inactive)

## O=C(O)c1ccc(C2SCc3nc4ccccc4n32)cc1 (stereo not drawn)
IGROV-1
  GI50: > 100 µM (inactive)
SK-MEL-28
  GI50: > 100 µM (inactive)
LOX IMVI
  GI50: > 10 µM (inactive)
A498
  GI50: > 100 µM (inactive)
ACHN
  GI50: > 100 µM (inactive)
SF-539
  GI50: > 100 µM (inactive)
HL-60
  GI50: > 100 µM (inactive)
SR
  GI50: > 100 µM (inactive)
PC-3
  GI50: > 100 µM (inactive)
T47D
  GI50: > 10 µM (inactive)
M14
  GI50: > 100 µM (inactive)
NCI-H226
  GI50: > 100 µM (inactive)
SN12C
  GI50: > 100 µM (inactive)
OVCAR-4
  GI50: > 100 µM (inactive)
OVCAR-5
  GI50: > 100 µM (inactive)
SK-MEL-2
  GI50: > 100 µM (inactive)

## Cc1cc(S(=O)(=O)O)c(NC(=O)c2oc3cc(O)ccc3c(=O)c2C)cc1Cl
IGROV-1
  GI50: > 100 µM (inactive)
SK-MEL-28
  GI50: > 100 µM (inactive)
LOX IMVI
  GI50: > 100 µM (inactive)
ACHN
  GI50: > 100 µM (inactive)
SF-539
  GI50: > 100 µM (inactive)
MDA-MB-435
  GI50: > 100 µM (inactive)
SR
  GI50: > 10 µM (inactive)
PC-3
  GI50: > 100 µM (inactive)
T47D
  GI50: > 100 µM (inactive)
M14
  GI50: > 100 µM (inactive)
NCI-H226
  GI50: > 100 µM (inactive)
SN12C
  GI50: > 100 µM (inactive)
OVCAR-4
  GI50: > 100 µM (inactive)
SK-OV-3
  GI50: > 100 µM (inactive)
OVCAR-5
  GI50: > 100 µM (inactive)
SK-MEL-2
  GI50: > 100 µM (inactive)
UACC-62
  GI50: > 100 µM (inactive)

## CCOC(=O)c1sc2c(c1OC(=O)c1ccc(Cl)cc1Cl)c(=O)n(-c1ccccc1)c(=S)n2-c1ccccc1
IGROV-1
  GI50: 4.06 µM (inactive)
SK-MEL-28
  GI50: > 76.4 µM (inactive)
LOX IMVI
  GI50: 20.8 µM (inactive)
A498
  GI50: 5.08 µM (inactive)
ACHN
  GI50: 4.85 µM (inactive)
SF-539
  GI50: 25.9 µM (inactive)
MDA-MB-435
  GI50: > 51.2 µM (inactive)
HL-60
  GI50: 4.29 µM (inactive)
PC-3
  GI50: 7.08 µM (inactive)
T47D
  GI50: > 35.5 µM (inactive)
M14
  GI50: 29.4 µM (inactive)
NCI-H226
  GI50: 6.73 µM (inactive)
SN12C
  GI50: 4.22 µM (inactive)
OVCAR-4
  GI50: 40.6 µM (inactive)
SK-OV-3
  GI50: 5.42 µM (inactive)
COLO 205
  GI50: 3.94 µM (inactive)
OVCAR-5
  GI50: 35.4 µM (inactive)
SK-MEL-2
  GI50: 3.97 µM (inactive)
UACC-62
  GI50: 20 µM (inactive)

## CC(=O)c1ccc2c(c1)N(CCCN1CCN(CCO)CC1)c1ccccc1C2
IGROV-1
  GI50: 17.3 µM (inactive)
SK-MEL-28
  GI50: 11.2 µM (inactive)
LOX IMVI
  GI50: 15.2 µM (inactive)
A498
  GI50: 15.7 µM (inactive)
ACHN
  GI50: 20.3 µM (inactive)
SF-539
  GI50: 16.7 µM (inactive)
MDA-MB-435
  GI50: 8.71 µM (inactive)
HL-60
  GI50: 13.8 µM (inactive)
PC-3
  GI50: 14.3 µM (inactive)
T47D
  GI50: 12.3 µM (inactive)
M14
  GI50: 13.6 µM (inactive)
NCI-H226
  GI50: 14.6 µM (inactive)
SN12C
  GI50: 16.9 µM (inactive)
OVCAR-4
  GI50: 15.1 µM (inactive)
SK-OV-3
  GI50: 16.3 µM (inactive)
COLO 205
  GI50: 15.1 µM (inactive)
OVCAR-5
  GI50: 17.2 µM (inactive)
SK-MEL-2
  GI50: 18.3 µM (inactive)
UACC-62
  GI50: 10.8 µM (inactive)

## CC(C)OC(=O)NNc1cc(Cl)ccc1Cl
IGROV-1
  GI50: 55.5 µM (inactive)
SK-MEL-28
  GI50: > 100 µM (inactive)
LOX IMVI
  GI50: 67.3 µM (inactive)
A498
  GI50: 24.3 µM (inactive)
ACHN
  GI50: > 100 µM (inactive)
SF-539
  GI50: > 100 µM (inactive)
MDA-MB-435
  GI50: > 100 µM (inactive)
HL-60
  GI50: 21.7 µM (inactive)
PC-3
  GI50: 56.8 µM (inactive)
T47D
  GI50: 42 µM (inactive)
M14
  GI50: > 100 µM (inactive)
SN12C
  GI50: > 100 µM (inactive)
SK-OV-3
  GI50: > 100 µM (inactive)
COLO 205
  GI50: > 100 µM (inactive)
OVCAR-5
  GI50: > 100 µM (inactive)
SK-MEL-2
  GI50: 65.8 µM (inactive)
UACC-62
  GI50: 43.7 µM (inactive)

## COC(=O)c1ccccc1/C=C1\Cc2cc(C)cc(C)c2C1=O
IGROV-1
  GI50: > 100 µM (inactive)
SK-MEL-28
  GI50: > 100 µM (inactive)
LOX IMVI
  GI50: > 100 µM (inactive)
A498
  GI50: > 100 µM (inactive)
ACHN
  GI50: > 100 µM (inactive)
SF-539
  GI50: > 100 µM (inactive)
HL-60
  GI50: > 100 µM (inactive)
SR
  GI50: > 100 µM (inactive)
PC-3
  GI50: > 100 µM (inactive)
T47D
  GI50: > 100 µM (inactive)
NCI-H226
  GI50: > 100 µM (inactive)
SN12C
  GI50: > 100 µM (inactive)
OVCAR-5
  GI50: > 100 µM (inactive)
SK-MEL-2
  GI50: > 100 µM (inactive)
UACC-62
  GI50: 53.5 µM (inactive)

## O=C(c1cc(Cl)ccc1Cl)N1CCN(c2ccc(Cl)c(Cl)c2)CC1
IGROV-1
  GI50: 39.4 µM (inactive)
SK-MEL-28
  GI50: 39.6 µM (inactive)
LOX IMVI
  GI50: 26.4 µM (inactive)
A498
  GI50: 11.5 µM (inactive)
ACHN
  GI50: 47 µM (inactive)
SF-539
  GI50: 19.2 µM (inactive)
HL-60
  GI50: 76.9 µM (inactive)
SR
  GI50: 34.9 µM (inactive)
PC-3
  GI50: 42.8 µM (inactive)
T47D
  GI50: 2.45 µM (inactive)
M14
  GI50: > 10 µM (inactive)
NCI-H226
  GI50: 13.6 µM (inactive)
SN12C
  GI50: 33.3 µM (inactive)
OVCAR-4
  GI50: 51.5 µM (inactive)
OVCAR-5
  GI50: 16.6 µM (inactive)

## CC(C)(NC(=O)OCc1ccccc1)C(=O)NC(Cc1ccccc1)C(=O)O (stereo not drawn) (Cbz-[Aib]-[ξF]-OH)
IGROV-1
  GI50: > 100 µM (inactive)
SK-MEL-28
  GI50: > 100 µM (inactive)
LOX IMVI
  GI50: > 100 µM (inactive)
A498
  GI50: > 100 µM (inactive)
SF-539
  GI50: > 100 µM (inactive)
MDA-MB-435
  GI50: > 100 µM (inactive)
PC-3
  GI50: > 100 µM (inactive)
T47D
  GI50: > 100 µM (inactive)
M14
  GI50: > 100 µM (inactive)
NCI-H226
  GI50: > 100 µM (inactive)
SN12C
  GI50: > 100 µM (inactive)
OVCAR-4
  GI50: > 100 µM (inactive)
SK-OV-3
  GI50: > 100 µM (inactive)
COLO 205
  GI50: > 100 µM (inactive)
OVCAR-5
  GI50: > 100 µM (inactive)
SK-MEL-2
  GI50: > 100 µM (inactive)
UACC-62
  GI50: > 100 µM (inactive)

## CC(OC(C)(C)C)C(NC(=O)C(CCCCNC(=O)OC(C)(C)C)NC(=O)C(Cc1c[nH]c2ccccc12)NC(=O)C(N)Cc1ccccc1)C(=O)NC(Cc1ccccc1)C(=O)NC1(C(=O)O)CCCC1 (stereo not drawn) (H-FWK(Boc)T(tBu)F[Ac5c]-OH; configuration not given here)
IGROV-1
  GI50: > 100 µM (inactive)
SK-MEL-28
  GI50: > 100 µM (inactive)
LOX IMVI
  GI50: > 100 µM (inactive)
A498
  GI50: > 100 µM (inactive)
ACHN
  GI50: > 100 µM (inactive)
SF-539
  GI50: > 100 µM (inactive)
MDA-MB-435
  GI50: > 100 µM (inactive)
PC-3
  GI50: > 100 µM (inactive)
T47D
  GI50: 79.4 µM (inactive)
M14
  GI50: > 100 µM (inactive)
NCI-H226
  GI50: > 100 µM (inactive)
SN12C
  GI50: > 100 µM (inactive)
OVCAR-4
  GI50: > 100 µM (inactive)
SK-OV-3
  GI50: > 100 µM (inactive)
COLO 205
  GI50: > 100 µM (inactive)
OVCAR-5
  GI50: > 100 µM (inactive)
SK-MEL-2
  GI50: > 100 µM (inactive)
UACC-62
  GI50: > 100 µM (inactive)

Reference: ChEMBL document CHEMBL1201862, “PubChem BioAssay data set” (2004)
